According to patent publication US20230293526A1, “METHOD FOR TREATING CANCER WITH A REVERSE TRANSCRIPTASE INHIBITOR” (PrimeFour Therapeutics, Inc., priority 2020, published 2023):

Assays:
Format in all cases: cell-based
PBMC = experiment: Cell proliferation Ex.3
SKNSH = experiment: Cell proliferation Ex.3; conditions: Homo sapiens, SK-N-SH
Description: (§1) A dose response relationship on cell proliferation was assessed for Compound 13 on 140 tumor cell lines. […] Cells were cultured in the appropriate media. For the assays, cells were seeded in white cell culture-treated flat and clear bottom multiwell plates and incubated at 37° C. overnight before compound was added. […] dependent on the medium, cell plates were equilibrated to room temperature for one hour, CellTiterGlo reagent (Promega) was added and luminescence was measured approximately an hour later using a luminometer. Raw data were converted into percent cell viability relative to the high and low control, which were set to 10000 and 000, respectively.

MINO = experiment: Cell proliferation Ex.3; conditions: Homo sapiens
Description: as §1

KMS-12-BM = experiment: Cell proliferation CellTiterGlo Ex.2; conditions: Homo sapiens; KMS-12-BM (Blood), 72 h
Outline: (§2)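 Cells were seeded, incubated overnight at 37 °C, then dosed at 10, 3, 1, 0.3, 0.1, 0.03, 0.01 and 0.003 μM for 72 h (5% or 10% CO2). CellTiterGlo luminescence gave percent viability relative to 0.10% DMSO (high) and 10 μM staurosporine (low) controls.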

COR-L279 = experiment: Cell proliferation CellTiterGlo Ex.2; conditions: Homo sapiens; COR-L279 (Lung), 72 h
Outline: as §2

NALM-6 = experiment: Cell proliferation CellTiterGlo Ex.2; conditions: Homo sapiens; NALM-6 (Blood), 72 h
Outline: as §2

NCI-H838 = experiment: Cell proliferation CellTiterGlo Ex.2; conditions: Homo sapiens; NCI-H838 (Lung), 72 h
Outline: as §2

SK-MEL-3 = experiment: Cell proliferation CellTiterGlo Ex.2; conditions: Homo sapiens, SK-MEL3; SK-MEL-3 (Skin), 72 h
Outline: as §2

LOU-NH91 = experiment: Cell proliferation CellTiterGlo Ex.2; conditions: LOU-NH91 (Lung), 72 h
Outline: as §2

HCT116 = experiment: Cell proliferation CellTiterGlo Ex.2; conditions: Homo sapiens, HCT-116; HCT116 (Colon), 72 h
Outline: as §2

MKN-1 = experiment: Cell proliferation CellTiterGlo Ex.2; conditions: Homo sapiens; MKN-1 (Stomach), 72 h
Outline: as §2

OCI-AML3 = experiment: Cell proliferation CellTiterGlo Ex.2; conditions: Homo sapiens, OCI-AML-3; OCI-AML3 (Blood), 72 h
Outline: as §2

SW620 = experiment: Cell proliferation CellTiterGlo Ex.2; conditions: Homo sapiens, SW-620; SW620 (Colon), 72 h
Outline: as §2

AsPC-1 = experiment: Cell proliferation CellTiterGlo Ex.2; conditions: Homo sapiens, ASPC1; AsPC-1 (Pancreas), 72 h
Outline: as §2

SK-LU-1 = experiment: Cell proliferation CellTiterGlo Ex.2; conditions: Homo sapiens; SK-LU-1 (Lung), 72 h
Outline: as §2

Ishikawa = experiment: Cell proliferation CellTiterGlo Ex.2; conditions: Homo sapiens; Ishikawa (Endometrium), 72 h
Outline: as §2

SCH = experiment: Cell proliferation CellTiterGlo Ex.2; conditions: SCH (Stomach), 72 h
Outline: as §2

MEC-1 = experiment: Cell proliferation CellTiterGlo Ex.2; conditions: Homo sapiens, MEC1; MEC-1 (Blood), 72 h
Outline: as §2

SNU-16 = experiment: Cell proliferation CellTiterGlo Ex.2; conditions: Homo sapiens; SNU-16 (Stomach), 72 h
Outline: as §2

H4 = experiment: Cell proliferation CellTiterGlo Ex.2; conditions: H4 (Brain), 72 h
Outline: as §2

SK-N-FI = experiment: Cell proliferation CellTiterGlo Ex.2; conditions: Homo sapiens; SK-N-FI (Brain), 72 h
Outline: as §2

LnCap = experiment: Cell proliferation CellTiterGlo Ex.2; conditions: Homo sapiens; LnCap (Prostate), 72 h
Outline: as §2

P31/FUJ = experiment: Cell proliferation CellTiterGlo Ex.2; conditions: Homo sapiens; P31/FUJ (Blood), 72 h
Outline: as §2

SJSA-1 = experiment: Cell proliferation CellTiterGlo Ex.2; conditions: Homo sapiens; SJSA-1 (Bone), 72 h
Outline: as §2

OVCAR-3 = experiment: Cell proliferation CellTiterGlo Ex.2; conditions: Homo sapiens; OVCAR-3 (Ovary), 72 h
Outline: as §2

U-937 = experiment: Cell proliferation CellTiterGlo Ex.2; conditions: Homo sapiens; U-937 (Blood), 72 h
Outline: as §2

DV90 = experiment: Cell proliferation CellTiterGlo Ex.2; conditions: Homo sapiens, DV-90; DV90 (Lung), 72 h
Outline: as §2

Jurkat = experiment: Cell proliferation CellTiterGlo Ex.2; conditions: Homo sapiens; Jurkat (Blood), 72 h
Outline: as §2

HT-1080 = experiment: Cell proliferation CellTiterGlo Ex.2; conditions: Homo sapiens; HT-1080 (Fibrosarcoma), 72 h
Outline: as §2

NCI-H292 = experiment: Cell proliferation CellTiterGlo Ex.2; conditions: Homo sapiens; NCI-H292 (Lung), 72 h
Outline: as §2

C#C[C@]1(CO)O[C@@H](n2cc(F)c(N)nc2=O)C[C@@H]1O [compound 9]
IC50 (PBMC; 72 h): > 10 µM | IC50 (PBMC; 120 h): > 10 µM | IC50 (PBMC; 168 h): > 10 µM | IC50 (SKNSH; 72 h): > 10 µM | IC50 (SKNSH; 120 h): > 10 µM | IC50 (SKNSH; 168 h): > 10 µM | IC50 (MINO; 72 h): 0.34 µM | IC50 (MINO; 120 h): 0.049 µM | IC50 (MINO; 168 h): 0.065 µM

C#C[C@]1(CO)O[C@@H](n2cnc3c(=O)[nH]c(N)nc32)C[C@@H]1O [compound 13]
IC50 (KMS-12-BM): 0.96 µM | IC50 (COR-L279): > 10 µM | IC50 (NALM-6): 0.25 µM | IC50 (NCI-H838): > 10 µM | IC50 (SK-MEL-3): > 10 µM | IC50 (LOU-NH91): > 10 µM | IC50 (HCT116): 5.84 µM | IC50 (MKN-1): 8.76 µM | IC50 (OCI-AML3): 7.15 µM | IC50 (SW620): 7.21 µM | IC50 (AsPC-1): > 10 µM | IC50 (SK-LU-1): > 10 µM | IC50 (Ishikawa): 6.07 µM | IC50 (SCH): 0.29 µM | IC50 (MEC-1): 9.85 µM | IC50 (SNU-16): 1.95 µM | IC50 (H4): > 10 µM | IC50 (SK-N-FI): > 10 µM | IC50 (LnCap): > 10 µM | IC50 (P31/FUJ): 0.4 µM | IC50 (SJSA-1): 6.44 µM | IC50 (OVCAR-3): 1.16 µM | IC50 (U-937): 1.12 µM | IC50 (DV90): 1.59 µM | IC50 (Jurkat): 1.17 µM | IC50 (HT-1080): 7.16 µM | IC50 (NCI-H292): 8.56 µM
